Experimental findings from patent US20260152487A1 (Sitryx Therapeutics Limited, priority 2021, published 2026) are described below.

The target of this experiment is T1, recombinant human PKM2 (Homo sapiens, UniProt P14618).
T1 construct: His (N); purchased R&D Systems
The experiment is described as follows: Human PKM2 activation assay (Kinase-Glo Plus luminescent detection of generated ATP). It is filed as biochemical. The note with it: for Emax: percentage activation normalised to DMSO vehicle (LOW) and 5 μM TEPP-46 (HIGH), read-out: hPKM2 Emax; for EC50: recombinant human PKM2 activation, 4-parameter logistic fit, read-out: hPKM2 EC50. The method, boiled down:
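Luminescent ATP detection (Kinase-Glo Plus, 15 min, 26 °C) followed a 60 min, 26 °C shaken reaction of compound with […] His-tagged human PKM2, PEP and ADP in imidazole/KCl/MgCl2 buffer with Tween20 and BSA, pH 7.2.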
A general note: Kinase-Glo measures the ATP left after a reaction by luminescence.

T1 sequence (P14618 2-531 limits assumed): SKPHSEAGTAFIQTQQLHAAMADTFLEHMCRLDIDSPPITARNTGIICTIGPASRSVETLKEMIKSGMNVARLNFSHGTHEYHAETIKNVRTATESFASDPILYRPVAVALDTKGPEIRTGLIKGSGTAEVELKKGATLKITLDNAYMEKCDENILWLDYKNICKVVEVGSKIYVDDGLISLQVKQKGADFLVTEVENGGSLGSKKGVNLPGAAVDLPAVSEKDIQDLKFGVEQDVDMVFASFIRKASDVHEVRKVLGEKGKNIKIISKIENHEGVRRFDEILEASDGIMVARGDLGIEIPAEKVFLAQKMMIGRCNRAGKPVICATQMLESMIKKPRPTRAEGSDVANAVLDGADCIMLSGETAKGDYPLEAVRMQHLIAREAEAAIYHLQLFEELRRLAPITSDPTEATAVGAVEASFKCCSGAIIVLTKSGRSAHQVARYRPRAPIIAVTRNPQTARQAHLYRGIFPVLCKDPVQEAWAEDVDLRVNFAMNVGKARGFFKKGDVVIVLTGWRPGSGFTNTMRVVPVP

Regarding `COc1ccc(Cn2ncc3cc(S(=O)(=O)c4cnn(CCO)c4)ccc3c2=O)nc1` [Example 311], the Emax came out at 105% and the EC50 turned out to be 238 nM. The matching figures for `Cc1cc(Cn2ncc3cc(S(=O)(=O)c4cnn(C)c4)ccc3c2=O)n[nH]1` [Example 312]: 102% and 215 nM. The like results for `Cc1c[nH]nc1Cn1ncc2cc(S(=O)(=O)c3cnn(C)c3)ccc2c1=O` [Example 313] were, in that order, 92.3% and 196 nM. The like results for `Cc1cc(Cn2ncc3cc(S(=O)(=O)c4cnn(C(F)F)c4)ccc3c2=O)n[nH]1` [Example 315] were, in that order, 108% and 241 nM. As to `Cc1cccc(Cn2ncc3cc(S(=O)(=O)c4n[nH]cc4F)ccc3c2=O)n1` [Example 316], the Emax came out at 110% and the EC50 was 200 nM. In the case of `Cn1cc(S(=O)(=O)c2ccc3c(=O)n(Cc4cc(Cl)[nH]n4)ncc3c2)cn1` [Example 317], the Emax turned out to be 109% and the EC50 was 169 nM. The like results for `Cc1cccc(Cn2ncc3cc(S(=O)(=O)c4c[nH]nc4Cl)ccc3c2=O)n1` [Example 318] were, in that order, 95.2% and 185 nM. The like results for `Cc1cccc(Cn2ncc3cc(S(=O)(=O)c4n[nH]cc4Cl)ccc3c2=O)n1` [Example 319] were, in that order, 102% and 157 nM.

Consider `Cn1cc(S(=O)(=O)c2ccc3c(=O)n(Cc4cc(F)[nH]n4)ncc3c2)cn1` [Example 322], for which the maximal response (Emax) is 104% and the EC50 was found to be 231 nM. For the molecule `COc1ccc(Cn2ncc3cc(S(=O)(=O)c4cc[nH]n4)ccc3c2=O)nc1` [Example 325], the Emax stood at 111% and the EC50 worked out at 151 nM. The like results for `COc1ccc(F)c(Cn2ncc3cc(S(=O)(=O)c4cn[nH]c4)ccc3c2=O)n1` [Example 326] were, in that order, 106% and 174 nM. The like results for `O=c1c2ccc(S(=O)(=O)c3cc[nH]n3)cc2cnn1Cc1ccn(C(F)F)n1` [Example 328] were, in that order, 91.5% and 162 nM. The matching figures for `COc1ccc(F)c(Cn2ncc3cc(S(=O)(=O)c4cc[nH]n4)ccc3c2=O)n1` [Example 329]: 98.5% and 232 nM. On to `Cn1cc(S(=O)(=O)c2ccc3c(=O)n(Cc4ccc5occc5n4)ncc3c2)cn1` [Example 330], for which the Emax was 108% and the EC50 came out at 20.6 nM. The matching figures for `Cc1cc(Cn2ncc3cc(S(=O)(=O)c4cnn(C)c4)ncc3c2=O)n[nH]1` [Example 331]: 93.3% and 167 nM. For the molecule `Cc1[nH]nc(Cn2ncc3cc(S(=O)(=O)c4cc[nH]n4)ccc3c2=O)c1Cl` [Example 332], the EC50 turned out to be 42.9 nM. With `COCCn1cc(S(=O)(=O)c2ccc3c(=O)n(Cc4ccc5c(n4)CCO5)ncc3c2)cn1` [Example 333], the Emax was found to be 101% and the EC50 stood at 31.8 nM. The like results for `O=c1c2ccc(S(=O)(=O)c3cnn(C4COC4)c3)cc2cnn1Cc1ccc2c(n1)CCO2` [Example 334] were, in that order, 96.8% and 23.3 nM.

Turning to `O=c1c2ccc(S(=O)(=O)c3cc[nH]n3)cc2cnn1Cc1ccc2occc2n1` [Example 335], the Emax was found to be 113% and the EC50 stood at 14.2 nM. The matching figures for `Cn1ccc(S(=O)(=O)c2ccc3c(=O)n(Cc4ccc5occc5n4)ncc3c2)n1` [Example 336]: 106% and 28.5 nM. The like results for `Cc1[nH]nc(Cn2ncc3cc(S(=O)(=O)c4ccn(C)n4)ccc3c2=O)c1Cl` [Example 337] were, in that order, 95.9% and 85.5 nM.

With `Cc1c(Cl)c(Cn2ncc3cc(S(=O)(=O)c4cn[nH]c4)ccc3c2=O)nn1C` [Example 338], the Emax stood at 96.4% and the EC50 was 24.4 nM. Regarding `O=c1c2ccc(S(=O)(=O)c3cc[nH]n3)cc2cnn1Cc1ccn(C2CC2)n1` [Example 339], the Emax stood at 110% and the EC50 came to 67.8 nM. The like results for `O=c1c2ccc(S(=O)(=O)c3cnn(C(F)F)c3)cc2cnn1Cc1ccc2c(n1)CCO2` [Example 340] were, in that order, 111% and 29.3 nM. The matching figures for `N=S(=O)(c1cn[nH]c1)c1ccc2c(=O)n(Cc3ccc4c(n3)CCO4)ncc2c1` (centres unmarked) [Example 341]: 107% and 109 nM.

For `Cc1nc(Cn2ncc3cc(S(=O)(=O)c4cn[nH]c4)ccc3c2=O)c(F)cc1F` [Example 342], the Emax was determined as 104% and the EC50 amounted to 84.4 nM. Consider `Cc1cc(Cn2ncc3cc(S(=O)(=O)c4cnn(C(F)F)c4)ncc3c2=O)n[nH]1` [Example 343], for which the Emax was determined as 98.2% and the EC50 is 97.6 nM.

For `O=c1c2ccc(S(=O)(=O)c3cn[nH]c3)cc2cnn1Cc1ccc2c(n1)OCCO2` [Example 344], the Emax is 107% and the EC50 was 31.5 nM. The like results for `Cc1cc2nc(Cn3ncc4cc(S(=O)(=O)c5cn[nH]c5)ccc4c3=O)ccc2o1` [Example 345] were, in that order, 113% and 11.4 nM. `O=c1c2ccc(S(=O)(=O)c3csc(C4CC4)n3)cc2cnn1Cc1cc[nH]n1` [Example 346]: the Emax was 96.7% and the EC50 stood at 42.3 nM. The matching figures for `O=c1c2cnc(S(=O)(=O)c3cn[nH]c3)cc2cnn1Cc1ccc2c(n1)CCO2` [Example 347]: 104% and 24.5 nM.

Turning to `Cc1[nH]nc(Cn2ncc3cc(S(=O)(=O)c4cnn(C)c4)ccc3c2=O)c1C` [Example 348], the Emax came to 94.3% and the EC50 is 51.6 nM. The matching figures for `Cc1[nH]nc(Cn2ncc3cc(S(=O)(=O)c4cnn(C(F)F)c4)ccc3c2=O)c1Cl` [Example 349]: 92.5% and 45.3 nM. The matching figures for `COC(C)c1nc(S(=O)(=O)c2ccc3c(=O)n(Cc4ccc5c(n4)CCO5)ncc3c2)cs1` (centres unmarked) [Example 350]: 94.9% and 36.7 nM. The matching figures for `COC(C)c1nc(S(=O)(=O)c2ccc3c(=O)n(Cc4cc[nH]n4)ncc3c2)cs1` (centres unmarked) [Example 351]: 103% and 93.9 nM. For `COC(C)c1nc(S(=O)(=O)c2ccc3c(=O)n(Cc4ccc5occc5n4)ncc3c2)cs1` (centres unmarked) [Example 352], the Emax came out at 117% and the EC50 is 27.5 nM.

For `COC(C)c1nc(S(=O)(=O)c2ccc3c(=O)n(Cc4nc(C)c(C)cc4F)ncc3c2)cs1` (centres unmarked) [Example 353], the Emax was determined as 105% and the EC50 worked out at 98.8 nM. Turning to `O=c1c2ccc(S(=O)(=O)c3cn[nH]c3)cc2cnn1Cc1ccc2c(n1)NCCO2` [Example 354], the Emax was 106% and the EC50 was 23.3 nM. As to `Cc1c(Cn2ncc3cc(S(=O)(=O)c4cnn(C)c4)ccc3c2=O)nn2c1OCC2` [Example 355], the Emax is 101% and the EC50 is 39.4 nM. The matching figures for `COC(C)c1nc(S(=O)(=O)c2ccc3c(=O)n(Cc4cc5n(n4)CCO5)ncc3c2)cs1` (centres unmarked) [Example 356]: 95.5% and 53 nM.

For the molecule `Cc1nc(S(=O)(=O)c2ccc3c(=O)n(Cc4cc5n(n4)CCO5)ncc3c2)cs1` [Example 357], the Emax turned out to be 100% and the EC50 was determined as 77.1 nM. On to `Cc1cc(Cn2ncc3cc(S(=O)(=O)c4csc(C)n4)ccc3c2=O)n[nH]1` [Example 358], for which the Emax worked out at 98.4% and the EC50 came to 77 nM.

A word on the Emax: it is the size of the effect at its maximum, as opposed to the concentration needed. One may read the EC50 as the concentration needed to bring the measured effect to its halfway point.
